Measurements: patent publication US20210322327A1, “EXTRACELLULAR VESICLES COMPRISING STING-AGONIST” (Codiak BioSciences, Inc., priority 2018, published 2021)

How the values were obtained:
[1] = test system: B16F10 murine melanoma cells; test: B16F10 tumor growth in C57BL/6 and STING knock-out mice; format: in vivo, C57BL/6 mice and C57BL/6-Tmem173^gt mice
Experimental: To confirm that the effects observed in FIGS. 54-58 were translated to anti-tumor activity, C57BL/6 mice and C57BL/6-Tmem173^gt mice were inoculated subcutaneously with 1×10^6 B16F10 murine melanoma cells (n=5 mice per group). Seven, ten, and thirteen days post-inoculation, the mice were injected intratumorally with PBS, exosomes, 20 μg of free 3-3 cAIMPdFSH, or 0.1 μg of 3-3 cAIMPdFSH loaded in PTGFRN-overexpressing exosomes. Tumor volumes were measured daily until day 19, and animals were sacrificed when tumor volume reached 2000 mm^3.

B16F10 lung metastases = B16F10 lung metastases after intratumoral treatment of the subcutaneous tumor; format: in vivo, C57BL/6 mice; details: 20 μg intratumoral
Source text: Activation of the STING pathway promotes antigen presentation and induces a durable T-cell response, as shown in Examples 11 and 12. Thus, the immune memory response induced by EXOSTING™ may be sufficient to prevent tumor metastasis after a local administration in a primary tumor. To test this hypothesis, exosomes purified from HEK293SF cells overexpressing PTGFRN were loaded with the cyclic dinucleotide 3-3 cAIMPdFSH as described in Example 1. C57BL/6 mice were inoculated subcutaneously with 1×10^6 B16F10 melanoma cells on day zero and challenged with an additional tail vein injection of 1×10^5 B16F10 melanoma cells to seed lung metastases (n=8 mice per group). Five, eight, and eleven days post-inoculation the mice were injected intratumorally at the subcutaneous tumor with PBS, 20 μg 3-3 cAIMPdFSH, 120 ng 3-3 cAIMPdFSH, or either 120 ng, 12 ng, or 1.2 ng 3-3 cAIMPdFSH loaded in PTGFRN-overexpressing exosomes (Exo STING Agonist). […] Lungs from all mice were harvested, imaged, and counted for metastases. […] As little as 12 ng of Exo STING Agonist prevented lung metastasis to the same extent as 20 μg STING Agonist (FIGS. 46B and 47).

CT26.CL25 cells = test: CT26.CL25 colorectal tumor growth; format: in vivo, BALB/c mice; details: 0.012 μg free, days 13, 16, 19
Experimental: To test and expand in vivo efficacy to other types of tumors, BALB/c mice were inoculated subcutaneously with 5×10^5 CT26.CL25 cells (ATCC®; CRL-2639™), a murine colorectal cancer cell line engineered to stably express beta-galactosidase, or 5×10^5 CT26.WT cells (ATCC®; CRL-2638™) (n=5-7 mice per group). Thirteen, sixteen, and nineteen days post-inoculation the mice were injected intratumorally into CT26.CL25 tumor with exosomes, 0.012 μg of free 3-3 cAIMPdFSH, or 0.012 μg-3 cAIMPdFSH loaded in PTGFRN-overexpressing exosomes and into CT26.WT tumor with PBS, exosomes, 100 μg of free ML RR-S2 CDA, or 0.2 μg-3 cAIMPdFSH loaded in PTGFRN-overexpressing exosomes.

OVA-reactive splenocytes = test: IFNγ ELISpot of splenocytes with OVA peptide SIINFEKL; format: in vivo, C57BL/6 mice
Experimental: As an orthogonal method to measure antigen-specific immunity, IFNγ-expression was measured by ELISpot according to standard protocols (ImmunoSpot®; Cellular Technology Limited). Splenocytes were homogenized to a single-cell suspension and plated (200,000 cells/well) in a plate coated with an anti-IFNγ antibody. The OVA peptide SIINFEKL was added to the cells for 18 hours to induce IFNγ production, cells were washed from the plate, and plate-bound IFNγ was detected using an orthogonal antibody (FIG. 41D). The total number of reactive spots per plate were counted and compared across groups using ImmunoSpot® software (Cellular Technology Limited).

B16F10 cells = test: B16F10 re-challenge on the opposite flank; format: in vivo, C57BL/6 mice; details: 20 μg group, re-challenged day 21, read day 39
Source text: STING pathway activation leads to memory T-cell recruitment and ultimately a durable adaptive immune response. To determine whether the anti-tumor effects in this study led to an immune response, the five animals in the high dose STING agonist and Exo STING groups were re-challenged on day 21 by transplantation of 5×10^5 B16F10 cells on the opposite flank. Five additional naïve mice were inoculated with the same tumor cell preparation and treated daily with PBS to ensure cell viability and growth kinetics. By day 39 (18 days post-challenge) all mice in the PBS group were sacrificed.

| Structure (SMILES) | tumor regression ([1]; C57BL/6-Tmem173^gt mice, 20 μg free) | tumor regression ([1]; C57BL/6 mice, free, printed 20 g, days 7, 10, 13) | lung lesions by histology (B16F10 lung metastases) | lung metastases compared to PBS (B16F10 lung metastases) | tumor growth compared to control (CT26.CL25 cells) | OVA-reactivity (IFNγ spots) (OVA-reactive splenocytes; 0.2 μg IP) | OVA-reactivity (IFNγ spots) (OVA-reactive splenocytes; 20 μg IP) | animals in which re-challenge tumors failed to grow (B16F10 cells) |
| --- | --- | --- | --- | --- | --- | --- | --- | --- |
| Nc1ncnc2c1ncn2[C@@H]1O[C@@H]2COP(=O)(S)O[C@H]3[C@@H](F)[C@H](n4cnc5c(=O)[nH]cnc54)O[C@@H]3COP(O)(=S)O[C@H]2[C@H]1F (some centres unmarked) [3-3 cAIMPdFSH, 3′3′-cAIMPdFSH] | no tumor regression was observed | dramatically improved tumor regression | significant amount of lung lesions inside of lung | dramatically reduced | moderately attenuated tumor growth | – | – | – |
| Nc1ncnc2c1ncn2[C@@H]1O[C@@H]2COP(O)(=S)O[C@@H]3C(O)[C@@H](COP(O)(=S)O[C@H]2[C@H]1O)O[C@H]3n1cnc2c(N)ncnc21 (some centres unmarked) [ML RR-S2 CDA] | – | – | – | – | – | very low levels of OVA-reactivity | highly reactive | four out of 5 |
